Data: patent US6737383B1, “Herbicidal oxadiazolidines” (priority 1999, dated 2004)

How the values were obtained:
bedstraw = test: Test B pre/postemergence bedstraw; format: in vivo, Galium aparine
Procedure, shortened: (§1)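 Response is a visual 0-to-10 score relative to untreated plants, where 0 means no effect and 10 means complete control, taken twelve to sixteen days after application. Treatments went onto soil at planting and onto foliage of 1- to 4-leaf plants, using a surfactant-containing non-phytotoxic solvent.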

blackgrass = test: Test B pre/postemergence blackgrass; format: in vivo, Alopecurus myosuroides
Procedure, shortened: as §1

surinam grass = test: Test B pre/postemergence surinam grass; format: in vivo, Brachiaria decumbens
Procedure, shortened: as §1

cocklebur = test: Test B pre/postemergence cocklebur; format: in vivo, Xanthium strumarium
Procedure, shortened: as §1

crabgrass = test: Test B pre/postemergence crabgrass; format: in vivo, Digitaria sanguinalis
Procedure, shortened: as §1

giant foxtail = test: Test B pre/postemergence giant foxtail; format: in vivo, Setaria faberii
Procedure, shortened: as §1

morningglory = test: Test B pre/postemergence morningglory; format: in vivo, Ipomoea hederacea
Procedure, shortened: as §1

pigweed = test: Test B pre/postemergence pigweed; format: in vivo, Amaranthus retroflexus
Procedure, shortened: as §1

sugar beet = test: Test B pre/postemergence sugar beet; format: in vivo, Beta vulgaris
Procedure, shortened: as §1

velvetleaf = test: Test B pre/postemergence velvetleaf; format: in vivo, Abutilon theophrasti
Procedure, shortened: as §1

wheat = test: Test B pre/postemergence wheat; format: in vivo, Triticum aestivum
Procedure, shortened: as §1

wild oat = test: Test B pre/postemergence wild oat; format: in vivo, Avena fatua
Procedure, shortened: as §1

purple nutsedge = test: Test B pre/postemergence purple nutsedge; format: in vivo, Cyperus rotundus
Procedure, shortened: as §1

rice = test: Test B flood test rice; format: in vivo, Oryza sativa
Procedure, shortened: (§2)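 Flood test on plants grown to the 2-leaf stage; treated plants kept in greenhouse twelve to sixteen days, then visually rated against controls on a 0 (no effect) to 10 (complete control) scale.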

duck salad = test: Test B flood test duck salad; format: in vivo, Heteranthera limosa
Procedure, shortened: as §2

bamyardgrass = test: Test B flood test barnyardgrass; format: in vivo, Echinochloa crus-galli
Procedure, shortened: as §2

[1] = Postemergence, Rate 31 g/ha, visual rating, scale 0 to 10 (0 no effect, 10 complete control)
[2] = Preemergence, Rate 31 g/ha, visual rating, scale 0 to 10 (0 no effect, 10 complete control)
[3] = Preemergence, Rate 62 g/ha, scale of 0 to 10 where 0 is no effect and 10 is complete control
[4] = Rate 16 g/ha, Postemergence, scale 0 to 10, 0 no effect, 10 complete control
[5] = Rate 16 g/ha, Preemergence, scale 0 to 10, 0 no effect, 10 complete control
[6] = Rate 62 g/ha, Postemergence, scale 0 to 10 (0 no effect, 10 complete control)
[7] = Rate 125 g/ha, Postemergence, scale of 0 to 10 where 0 is no effect and 10 is complete control
[8] = Rate 125 g/ha, Preemergence, scale of 0 to 10 where 0 is no effect and 10 is complete control
[9] = Rate 16 g/ha, head printed Pre-emergence (flood test species), scale 0 to 10, 0 no effect, 10 complete control
[10] = Rate 31 g/ha, Pre-emergence section (flood test species), scale 0 to 10
[11] = Rate 62 g/ha, headed Pre-emergence (flood test species), scale 0 to 10 (0 no effect, 10 complete control)
[12] = Rate 125 g/ha, Pre-emergence, flood test species, scale 0 to 10 where 0 is no effect and 10 is complete control
[13] = Rate 250 g/ha, Pre-emergence, flood-test species, scale 0 to 10, 0 is no effect, 10 is complete control
[14] = Rate 500 g/ha, Pre-emergence, flood test species, scale 0 to 10 (0 no effect, 10 complete control)

C=CCCCn1c(=O)on(C(=O)N(c2ccc(F)cc2)C(C)C)c1=O [Compound 291]
8: Blackgrass plant response rating (blackgrass; [8]) | Giant foxtail plant response rating (giant foxtail; [2]) | Giant foxtail plant response rating (giant foxtail; [3])
7: Giant foxtail plant response rating (giant foxtail; [5])
6: Barnyardgrass plant response rating (bamyardgrass; [14])
4: Morningglory plant response rating (morningglory; [6]) | Morningglory plant response rating (morningglory; [7]) | Barnyardgrass plant response rating (bamyardgrass; [12]) | Barnyardgrass plant response rating (bamyardgrass; [13])
9: Giant foxtail plant response rating (giant foxtail; [8])
1: Blackgrass plant response rating (blackgrass; [6]) | Morningglory plant response rating (morningglory; [1]) | Morningglory plant response rating (morningglory; [4])
0: Bedstraw plant response rating (bedstraw; [1]) | Bedstraw plant response rating (bedstraw; [2]) | Bedstraw plant response rating (bedstraw; [3]) | Bedstraw plant response rating (bedstraw; [4]) | Bedstraw plant response rating (bedstraw; [5]) | Bedstraw plant response rating (bedstraw; [6]) | Bedstraw plant response rating (bedstraw; [8]) | Blackgrass plant response rating (blackgrass; [1]) | Blackgrass plant response rating (blackgrass; [2]) | Blackgrass plant response rating (blackgrass; [3]) | Blackgrass plant response rating (blackgrass; [4]) | Blackgrass plant response rating (blackgrass; [5]) | B. signalgrass plant response rating (surinam grass; [1]) | B. signalgrass plant response rating (surinam grass; [2]) | B. signalgrass plant response rating (surinam grass; [3]) | B. signalgrass plant response rating (surinam grass; [4]) | B. signalgrass plant response rating (surinam grass; [5]) | B. signalgrass plant response rating (surinam grass; [6]) | B. signalgrass plant response rating (surinam grass; [7]) | Cocklebur plant response rating (cocklebur; [1]) | Cocklebur plant response rating (cocklebur; [2]) | Cocklebur plant response rating (cocklebur; [3]) | Cocklebur plant response rating (cocklebur; [4]) | Cocklebur plant response rating (cocklebur; [5]) | Cocklebur plant response rating (cocklebur; [6]) | Cocklebur plant response rating (cocklebur; [7]) | Cocklebur plant response rating (cocklebur; [8]) | Crabgrass plant response rating (crabgrass; [1]) | Crabgrass plant response rating (crabgrass; [2]) | Crabgrass plant response rating (crabgrass; [3]) | Crabgrass plant response rating (crabgrass; [4]) | Crabgrass plant response rating (crabgrass; [5]) | Crabgrass plant response rating (crabgrass; [6]) | Crabgrass plant response rating (crabgrass; [7]) | Crabgrass plant response rating (crabgrass; [8]) | Giant foxtail plant response rating (giant foxtail; [1]) | Giant foxtail plant response rating (giant foxtail; [4]) | Giant foxtail plant response rating (giant foxtail; [6]) | Giant foxtail plant response rating (giant foxtail; [7]) | Morningglory plant response rating (morningglory; [2]) | Morningglory plant response rating (morningglory; [3]) | Morningglory plant response rating (morningglory; [5]) | Morningglory plant response rating (morningglory; [8]) | Redroot pigweed plant response rating (pigweed; [1]) | Redroot pigweed plant response rating (pigweed; [2]) | Redroot pigweed plant response rating (pigweed; [3]) | Redroot pigweed plant response rating (pigweed; [4]) | Redroot pigweed plant response rating (pigweed; [5]) | Redroot pigweed plant response rating (pigweed; [6]) | Redroot pigweed plant response rating (pigweed; [7]) | Redroot pigweed plant response rating (pigweed; [8]) | Sugarbeets plant response rating (sugar beet; [1]) | Sugarbeets plant response rating (sugar beet; [2]) | Sugarbeets plant response rating (sugar beet; [3]) | Sugarbeets plant response rating (sugar beet; [4]) | Sugarbeets plant response rating (sugar beet; [5]) | Sugarbeets plant response rating (sugar beet; [6]) | Sugarbeets plant response rating (sugar beet; [7]) | Sugarbeets plant response rating (sugar beet; [8]) | Velvetleaf plant response rating (velvetleaf; [1]) | Velvetleaf plant response rating (velvetleaf; [2]) | Velvetleaf plant response rating (velvetleaf; [3]) | Velvetleaf plant response rating (velvetleaf; [4]) | Velvetleaf plant response rating (velvetleaf; [5]) | Velvetleaf plant response rating (velvetleaf; [6]) | Velvetleaf plant response rating (velvetleaf; [7]) | Velvetleaf plant response rating (velvetleaf; [8]) | Wheat plant response rating (wheat; [1]) | Wheat plant response rating (wheat; [2]) | Wheat plant response rating (wheat; [3]) | Wheat plant response rating (wheat; [4]) | Wheat plant response rating (wheat; [5]) | Wheat plant response rating (wheat; [6]) | Wheat plant response rating (wheat; [7]) | Wheat plant response rating (wheat; [8]) | Wild oats plant response rating (wild oat; [1]) | Wild oats plant response rating (wild oat; [2]) | Wild oats plant response rating (wild oat; [3]) | Wild oats plant response rating (wild oat; [4]) | Wild oats plant response rating (wild oat; [5]) | Wild oats plant response rating (wild oat; [6]) | Wild oats plant response rating (wild oat; [7]) | Nutsedge plant response rating (purple nutsedge; [1]) | Nutsedge plant response rating (purple nutsedge; [2]) | Nutsedge plant response rating (purple nutsedge; [3]) | Nutsedge plant response rating (purple nutsedge; [4]) | Nutsedge plant response rating (purple nutsedge; [5]) | Nutsedge plant response rating (purple nutsedge; [6]) | Nutsedge plant response rating (purple nutsedge; [7]) | Nutsedge plant response rating (purple nutsedge; [8]) | Rice plant response rating (rice; [9]) | Rice plant response rating (rice; [10]) | Rice plant response rating (rice; [11]) | Rice plant response rating (rice; [13]) | Rice plant response rating (rice; [14]) | Ducksalad plant response rating (duck salad; [9]) | Ducksalad plant response rating (duck salad; [10]) | Ducksalad plant response rating (duck salad; [11]) | Ducksalad plant response rating (duck salad; [12]) | Ducksalad plant response rating (duck salad; [13]) | Ducksalad plant response rating (duck salad; [14]) | Barnyardgrass plant response rating (bamyardgrass; [9])
2: Blackgrass plant response rating (blackgrass; [7]) | Rice plant response rating (rice; [12]) | Barnyardgrass plant response rating (bamyardgrass; [10]) | Barnyardgrass plant response rating (bamyardgrass; [11])
3: Bedstraw plant response rating (bedstraw; [7]) | B. signalgrass plant response rating (surinam grass; [8])
